Assay results as given in patent US20220133717A1, “RABEXIMOD IN THE TREATMENT OF RHEUMATOID ARTHRITIS” (CYXONE AB, priority 2020, published 2022).

Key:
[1] = test system: patients with moderate or severe active rheumatoid arthritis; experiment: Phase II clinical trial: safety (AEs, physical examinations, vital signs, ECG)
Text: The Phase II study was a randomised, parallel-group, double-blind, dose-ranging, placebo-controlled study of Rabeximod in patients with moderate or severe active RA with an inadequate response to methotrexate.
Safety assessments included AEs, vital signs, weight, physical examination, 12-lead ECG and safety laboratory tests (serum chemistry, haematology and urinalysis).
Safety measurements for this study included AEs, clinical laboratory tests, physical examinations, vital signs and resting 12-lead ECGs.

[2] = test system: patients with moderate or severe active rheumatoid arthritis; experiment: Phase II clinical trial: efficacy (ACR20/50, DAS28, EULAR response, ACR components); format: in vivo, human
Experimental: The primary objective of this study was to evaluate the efficacy (American College of Rheumatology 20) of Rabeximod administered orally once daily for 12 weeks in combination with a stable dose of methotrexate in patients with moderate or severe active rheumatoid arthritis. Efficacy was evaluated by American College of Rheumatology 20 (66/68 joint count) after 12 weeks of treatment.
The primary endpoint of this study is the American College of Rheumatology (ACR20) 20 improvement measured after 12 weeks of treatment with study drug. The ACR20 is a composite score defined as an improvement of 20% in the number of swollen and tender joints and a 20% improvement in 3 of the following 5: • Patient self-assessed disability by modified Health Assessment Questionnaire (mHAQ) • Physician Global assessment • Subject Global assessment • Patient pain assessment • Acute phase reactant (C-reactive protein [CRP]) Secondary efficacy endpoints were as follows: • ACR20 improvement measured after 4 and 8 weeks of treatment • Subgroup analysis of ACR20 results from patients enrolled with baseline CRP >1.5 mg/dL. • ACR50/70 improvement measured after 4, 8 and 12 weeks • Original Disease Activity Score (DAS) change from baseline (according to the European League Against Rheumatism [EULAR] Response Criteria). Note: the Original DAS was replaced with DAS28 • Change from baseline in: number of swollen/tender joints, morning stiffness duration. Subject and Physician Global assessments, pain assessed by Visual Analogue Scale (VAS), self-assessed physical disability (mHAQ), erythrocyte sedimentation rate (ESR) and CRP • The evaluation of pharmacokinetic (PK) and pharmacodynamic (PD) high sensitive CRP, TNF-a, interleukin-6 [IL-6] and anti-cyclic citrullinated peptide antibody [anti-CCP]) over time
This was a multicentre, multinational, dose-ranging, randomised, double-blind, multiple dose, placebo-controlled, parallel-group study of Rabeximod administered orally in a total of 225 enrolled patients with moderate or severe active RA. All patients must have been receiving weekly methotrexate treatment for at least 16 weeks (with unchanged doses for at least 8 weeks) up to Day 0 of study.
Diagnosis of RA was based on the American Rheumatism Association (ARA) 1987 revised criteria, having an ACR global functional class of 1 to 3, stable methotrexate dose of at least 15 mg per week and central laboratory CRP level at study entry of at least 1.5 mg/dL and clinical findings of active disease (at least 6 swollen and 6 tender joints to palpation). Individual patient duration in the study was approximately 126 days (a 14-day screening period, an 84-day treatment period [12 weeks], and a 28 day [4-week] follow-up period).
After meeting the inclusion and exclusion criteria and providing informed consent, patients were randomly assigned (1:1:1:1 ratio) to receive 1 of the following treatments: • 6.25 mg Rabeximod • 15 mg Rabeximod • 37.5 mg Rabeximod • Placebo
An assessment of tender and swollen joints was performed for the ACR response criteria. Joints to be evaluated for disease activity assessment (using the ACR 66/68 joint count) included the following: temporomandibular, sternoclavicular, acromioclavicular, shoulder, elbow, wrist, all 5 metacarpophalangeal joints, 4 proximal interphalangeal joints, 4 distal interphalangeal, thumb interphalangeal joint, hip (for tenderness only), knee, ankle, tarsus, 5 metatarsophalangeal, 4 proximal interphalangeal and foot thumb interphalangeal joints at each side. In accordance with the protocol, an independent joint reviewer performed the rheumatology examination, where possible. If an independent joint reviewer was not available, the same examiner performed all rheumatology examinations for a patient throughout the study.
Patient satisfaction in performing activities of daily living was assessed using the mHAQ. […]

[3] = test system: healthy male volunteers; experiment: Phase 1 clinical trial: safety and tolerability of single and multiple oral rising doses; format: in vivo, human
Text: The Phase 1 study assessed the safety, tolerability, pharmacokinetics and pharmacodynamics of single and multiple oral rising doses of Rabeximod (in a capsule formulation) in healthy male volunteers. The study also included an open-label, randomised, two-period crossover part that was designed to investigate the effect of food on the pharmacokinetics of Rabeximod. In total, 87 healthy male subjects were enrolled into the study.

Cc1cc2nc3c4cc(Cl)ccc4n(CC(=O)NCCN(C)C)c3nc2cc1C [Rabeximod, 9-Chloro-2,3-dimethyl-6-(N,N-dimethylaminoethylamino-2-oxoethyl)-6H-indolo-[2,3-b]quinoxaline]
proportion of patients experiencing study drug-related AEs ([1]; 37.5 mg group (32 patients)): 58.2% | deaths during the study ([1]; 12 weeks treatment, 4 weeks follow-up): No deaths | proportion of patients experiencing study drug-related AEs ([1]; Rabeximod groups pooled (placebo 11.1%)): 34.5% | majority of changes in physical examinations ([1]; all occurred in the Rabeximod group, most reported as AEs): skin abnormalities | relation of skin abnormality events to dose ([1]; majority in 37.5 mg group, then 15 mg, then 6.25 mg): dose response | tolerability ([1]; once daily at 6.25, 15 and 37.5 mg, RA patients taking methotrexate): well-tolerated | changes in vital signs and 12-lead ECGs ([1]; over the course of the study): no notable changes | percentage mean reduction in joint pain, comparison of dose groups ([2]; 15 mg group): best results | percentage of patients achieving ACR50, comparison of dose groups ([2]; 15 mg group): best results | reduction in duration of morning stiffness, comparison of dose groups ([2]; 15 mg group, especially at week 16): best results | percentage of patients achieving ACR50 response compared with placebo ([2]; "At Week" (number not given), 6.25, 15 and 37.5 mg groups): higher percentage | change from baseline in each component of the ACR response (joint count 66/68, Global assessments VAS, joint pain, HAQ-DI, CRP, ESR) ([2]; Rabeximod groups): notable decrease (improvement) | change in mean DAS28 score from baseline ([2]; Week 12, 6.25 mg group (placebo −0.983)): −1.063 points | change in mean DAS28 score from baseline ([2]; Week 12, 15 mg group (placebo −0.983)): −1.214 points | change in mean DAS28 score from baseline ([2]; Week 12, 37.5 mg group (placebo −0.983)): −1.204 points | proportion of patients achieving ACR20 compared with placebo ([2]; Week 12, Rabeximod groups): larger proportion | increases in the proportions of patients achieving ACR50 ([2]; Week 16): greater | percentage mean reduction from baseline in swollen (66) and tender (68) joint counts, Physician and Subject Global assessments ([2]; Week 16): notable improvements | percentage of patients achieving a good or moderate EULAR response ([2]; Week 16, 6.5 mg group (placebo 38.5%)): 37.8% | proportions of patients achieving ACR20, comparison of dose groups ([2]; Week 16, 15 mg group): best results | reduction in swollen/tender joint counts and Global assessments, comparison of dose groups ([2]; Week 16, 15 mg group): best results | percentage of patients achieving a good or moderate EULAR response ([2]; Week 16, 15 mg group (placebo 38.5%)): 67.7% | percentage of patients achieving a good or moderate EULAR response ([2]; Week 16, 37.5 mg group (placebo 38.5%)): 55.8% | proportions of patients achieving ACR20 ([2]; Week 16, Rabeximod groups): continued to increase | duration of morning stiffness compared with placebo ([2]; majority of time points, Rabeximod groups): greater reductions (improvement) | improvement in symptoms compared with placebo (plus methotrexate) ([2]; onset at least 8-12 weeks after first dose, further improvement at Week 16): greater improvement | percentage mean reduction from baseline in joint pain ([2]; week 1): notable | tolerability ([3]; multiple dose of 600 mg loading followed by 100 mg): less well tolerated due to phototoxicity reactions | tolerability ([3]; multiple oral doses up to a 200 mg loading dose followed by 50 mg maintenance dose): well tolerated | tolerability ([3]; single dose of 600 mg): less well tolerated due to phototoxicity reactions | tolerability ([3]; single oral doses up to 400 mg): well tolerated
